This assay deals with T1, Interleukin-1 receptor-associated kinase 4 (Homo sapiens, UniProt Q9NWZ3).
T1 sequence (Q9NWZ3 whole entry): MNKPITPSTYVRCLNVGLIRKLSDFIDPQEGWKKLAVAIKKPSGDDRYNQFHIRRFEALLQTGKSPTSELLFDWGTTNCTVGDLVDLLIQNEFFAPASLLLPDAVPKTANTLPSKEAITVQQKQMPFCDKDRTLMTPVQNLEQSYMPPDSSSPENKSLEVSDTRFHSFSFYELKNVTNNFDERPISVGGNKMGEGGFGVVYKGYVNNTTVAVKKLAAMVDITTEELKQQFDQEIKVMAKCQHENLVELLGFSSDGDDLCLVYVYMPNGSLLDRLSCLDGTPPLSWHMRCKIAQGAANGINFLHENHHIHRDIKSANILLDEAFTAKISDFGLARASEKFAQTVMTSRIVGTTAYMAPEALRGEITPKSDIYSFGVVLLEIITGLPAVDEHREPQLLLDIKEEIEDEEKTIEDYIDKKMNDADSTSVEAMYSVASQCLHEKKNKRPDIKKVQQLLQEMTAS
Put plainly: Enzymatic Assay: IRAK4 is a human purified recombinant enzyme (His-TEV-[…] ([…]). IRAK4 hydrolyses ATP, autophosphorylates and phosphorylates a Serine/Threonine generic peptidic substrate (STK: 61ST1BLC from CisBio International based in Bagnols/Cèze FR).Measurement of IRAK-4 inhibition was performed in streptavidin coated 384well FlashPlate (PerkinElmer #SMP410A). His-TEV-IRAK4 (20 ng/well), ATP (2 μM, [33P]ATP 0.25 µCi/well), STK1-biotin peptide (300 nM) and compounds in DMSO (range of concentrations from 20 µM to 1 nM) or controls (2% DMSO) were incubated for 3 hours at 30° C. in assay buffer: Hepes pH7.0 50 mM, Fatty acid-free BSA 0.1%, Dithiothreitol DTT 2 mM, MgCl2 10 mM, EGTA 0.5 mM, Tween-20 0.01%, MnCl2 5 mM.
For `Cn1cc(-c2cccc(-c3ncc(-c4cnn(C)c4)c(NCC4CCCN(C(=O)OC(C)(C)C)C4)n3)c2)cn1` (centres undefined), the IC50 is > 5000 nM. In the case of `Cn1cc(-c2cccc(-c3ncc(-c4ccn(C)n4)c(O[C@@H]4CCC[C@@H](N)[C@@H]4O)n3)c2)cn1` it was < 100 nM; in that of `Cc1nnc(-c2cnc(-c3cccc(-c4cnn(C)c4)c3)nc2NC2CCN(S(C)(=O)=O)CC2)s1`, < 100 nM; in that of `Cn1cc(-c2cccc(-c3ncc(-c4cnn(C)c4)c(N[C@H]4CCN(S(C)(=O)=O)C4)n3)c2)cn1`, < 100 nM.

As usually defined, the IC50 is the midpoint of a concentration-inhibition curve.
